Source: ChEMBL document CHEMBL3879915, “Methods of inhibiting PRMT5” (2014)

Columns and labels:
[1] = target: Protein arginine N-methyltransferase 5 (Homo sapiens, UniProt O14744); assay: Inhibition of PRMT5 in human Z138 cells assessed as decrease in di-methyl arginine levels after 96 hrs by Western blot method; assay type: cell-based
PRMT5/MEP50 complex = PRMT5/MEP50 complex (Homo sapiens, UniProt O14744); assay: Inhibition of recombinant human fetal brain FLAG-tagged PRMT5/full length human testis 6His-tagged MEP50 expressed in baculovirus infected insect Sf9 cells using human histone H4 (1 to 15 residues) as substrate preincubated for 30 mins followed by [3H]-SAM addition
[2] = Antiproliferative activity against human Z138 cells assessed as inhibition of cell viability after 5 days by Cell-Titer Glo assay; assay type: functional, cell-based; settings: Z-138, 120 h

PRMT5/MEP50 complex, sequence (O14744 whole entry, the tested form may be a part): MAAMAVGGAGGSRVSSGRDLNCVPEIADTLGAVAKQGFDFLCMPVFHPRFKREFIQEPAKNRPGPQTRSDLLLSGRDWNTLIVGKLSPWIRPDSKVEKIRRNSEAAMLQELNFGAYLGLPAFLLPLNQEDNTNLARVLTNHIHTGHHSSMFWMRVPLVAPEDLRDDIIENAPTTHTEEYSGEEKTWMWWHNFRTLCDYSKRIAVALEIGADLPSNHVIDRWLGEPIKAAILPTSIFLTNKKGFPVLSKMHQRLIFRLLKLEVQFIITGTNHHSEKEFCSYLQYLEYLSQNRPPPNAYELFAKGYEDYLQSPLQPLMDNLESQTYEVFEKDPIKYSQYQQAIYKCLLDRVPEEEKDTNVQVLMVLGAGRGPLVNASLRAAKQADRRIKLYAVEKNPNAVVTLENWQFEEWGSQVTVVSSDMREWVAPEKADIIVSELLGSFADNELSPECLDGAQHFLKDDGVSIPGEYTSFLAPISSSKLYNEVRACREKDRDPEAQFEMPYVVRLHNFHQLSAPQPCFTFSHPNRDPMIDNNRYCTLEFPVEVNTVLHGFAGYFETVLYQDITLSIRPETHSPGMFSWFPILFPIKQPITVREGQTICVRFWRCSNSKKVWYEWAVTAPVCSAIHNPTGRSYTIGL
PRMT5/MEP50 complex, sequence (Q9BQA1 whole entry, further chain, the tested form may be a part): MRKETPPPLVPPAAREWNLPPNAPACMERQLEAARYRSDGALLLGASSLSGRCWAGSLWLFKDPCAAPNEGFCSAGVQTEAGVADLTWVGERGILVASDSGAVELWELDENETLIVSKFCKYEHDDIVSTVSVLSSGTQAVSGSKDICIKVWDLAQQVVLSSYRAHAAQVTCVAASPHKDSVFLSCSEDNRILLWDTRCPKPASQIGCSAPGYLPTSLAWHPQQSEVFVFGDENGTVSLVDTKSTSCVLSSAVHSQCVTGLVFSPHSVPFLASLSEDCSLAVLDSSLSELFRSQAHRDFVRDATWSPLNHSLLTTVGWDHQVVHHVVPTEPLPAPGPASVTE
Protein arginine N-methyltransferase 5, sequence (O14744 whole entry, the tested form may be a part): as the sequence (O14744 whole entry, the tested form may be a part) above

| SMILES | EC50 [1] [nM] | IC50 (PRMT5/MEP50 complex) [nM] | EC50 [2] [nM] |
| --- | --- | --- | --- |
| Cn1cnc2cc(OCC(=O)NCC(O)CN3CCc4ccccc4C3)ccc21 (configuration not stated) | 101 to 1000 | 101 to 1000 | 10000 to 50000 |
| CCN(c1cccc(C(=O)NCC(O)CN2CCc3ccccc3C2)c1)C1CCOCC1 (configuration not stated) | 101 to 1000 | 101 to 1000 |  |
| CC(=O)Nc1ccc(OCC(=O)NCC(O)CN2CCc3ccccc3C2)cc1 (configuration not stated) | 101 to 1000 | 101 to 1000 | > 20000 |
| CS(=O)(=O)c1cccc(OCC(=O)NCC(O)CN2CCc3ccccc3C2)c1 (configuration not stated) | 101 to 1000 | < 100 | 1000 to 10000 |
| COc1cccc(OCC(=O)NCC(O)CN2CCc3ccccc3C2)c1 (configuration not stated) | 101 to 1000 | < 100 | 1000 to 10000 |
| O=C(COc1cccc2ccccc12)NCC(O)CN1CCc2ccccc2C1 (configuration not stated) | 101 to 1000 | < 100 | 1000 to 10000 |
| CC(Oc1ccccc1)C(=O)NCC(O)CN1CCc2ccccc2C1 (configuration not stated) | 101 to 1000 | < 100 | 1000 to 10000 |
| COc1ccccc1OCC(=O)NCC(O)CN1CCc2ccccc2C1 (configuration not stated) | 101 to 1000 | < 100 | 1000 to 10000 |
| N#Cc1ccc(OCC(=O)NCC(O)CN2CCc3ccccc3C2)cc1 (configuration not stated) | 101 to 1000 | 101 to 1000 | 10000 to 50000 |
| Cn1ncc2ccc(OCC(=O)NCC(O)CN3CCc4ccccc4C3)cc21 (configuration not stated) | 101 to 1000 | < 100 | 1000 to 10000 |
| Cn1cnc2ccc(OCC(=O)NCC(O)CN3CCc4ccccc4C3)cc21 (configuration not stated) | 101 to 1000 |  | 10000 to 50000 |
| O=C(COc1ccccc1S(=O)(=O)N1CCOCC1)NCC(O)CN1CCc2ccccc2C1 (configuration not stated) | 101 to 1000 | < 100 |  |
| Cc1cccc(OCC(=O)NCC(O)CN2CCc3ccccc3C2)c1 (configuration not stated) | 101 to 1000 | < 100 | 1000 to 10000 |
| CC(C)(Oc1cccc2cccnc12)C(=O)NCC(O)CN1CCc2ccccc2C1 (configuration not stated) | 101 to 1000 | < 100 | 1000 to 10000 |
| O=C(COc1ccccc1C1CCCCC1)NCC(O)CN1CCc2ccccc2C1 (configuration not stated) | 101 to 1000 | < 100 | 1000 to 10000 |
| O=C(CNc1ccccc1)NCC(O)CN1CCc2ccccc2C1 (configuration not stated) | 1000 to 10000 | 1000 to 10000 | > 20000 |
| O=C(COc1cccc2ccc(N3CCOCC3)nc12)NCC(O)CN1CCc2ccccc2C1 (configuration not stated) | 101 to 1000 | < 100 | 10000 to 50000 |
| O=C(COc1ccccc1)NC[C@H](O)CN1CCc2ccccc2C1 | 101 to 1000 | 101 to 1000 | 10000 to 50000 |
| O=C(NCC(O)CN1Cc2ccccc2C1)c1cccc(NC2CCOCC2)c1 (configuration not stated) | 101 to 1000 | 101 to 1000 |  |
| N#CCc1cccc(-c2cccc(OCC(O)CN3CCc4ccccc4C3)c2)c1 (configuration not stated) | 1000 to 10000 | 101 to 1000 |  |

| SMILES | EC50 [1] [nM] | IC50 (PRMT5/MEP50 complex) [nM] | EC50 [2] [nM] |
| --- | --- | --- | --- |
| N#Cc1ccccc1OCC(=O)NCC(O)CN1CCc2ccccc2C1 (configuration not stated) | 101 to 1000 | 101 to 1000 | 10000 to 50000 |
| O=C(COc1cccc2cccnc12)NCC(O)CN1CCc2ccccc2C1 (configuration not stated) | < 100 | < 100 | 101 to 1000 |
| COc1cc(Cl)cc(-c2cccc(OCC(O)CN3CCc4ccccc4C3)c2)c1 (configuration not stated) | > 20000 | 101 to 1000 |  |
| CC(C)(C)OC(=O)Nc1cccc(C(=O)NCC(O)CN2Cc3ccccc3C2)c1 (configuration not stated) | 1000 to 10000 | 101 to 1000 |  |
| Cc1ccccc1OCC(=O)NCC(O)CN1CCc2ccccc2C1 (configuration not stated) | 101 to 1000 | 101 to 1000 | 1000 to 10000 |
| O=C(NC[C@@H](O)CN1CCc2ccccc2C1)Oc1ccccc1 | 1000 to 10000 | < 100 |  |
| O=C(COc1cccc(F)c1)NCC(O)CN1CCc2ccccc2C1 (configuration not stated) | 101 to 1000 | 101 to 1000 | 10000 to 50000 |
| CN(C)c1ccccc1OCC(=O)NCC(O)CN1CCc2ccccc2C1 (configuration not stated) | < 100 | < 100 | 1000 to 10000 |
| CS(=O)(=O)c1ccccc1OCC(=O)NCC(O)CN1Cc2ccccc2C1 (configuration not stated) | 101 to 1000 | 101 to 1000 |  |
| CS(=O)(=O)c1ccccc1OCC(=O)NCC(O)CN1CCc2ccccc2C1 (configuration not stated) | < 100 | < 100 | 1000 to 10000 |
| CS(=O)(=O)Nc1cccc(OCC(=O)NCC(O)CN2CCc3ccccc3C2)c1 (configuration not stated) | 101 to 1000 | < 100 | 1000 to 10000 |
| CC(=O)Nc1ccccc1OCC(=O)NCC(O)CN1CCc2ccccc2C1 (configuration not stated) | 101 to 1000 | 101 to 1000 | > 20000 |
| O=C(COc1cccc2c1CCCC2)NCC(O)CN1CCc2ccccc2C1 (configuration not stated) | 101 to 1000 | < 100 | 1000 to 10000 |
| O=C(NCC(O)CN1CCc2ccccc2C1)c1cccc(NC2CCOC2)c1 (configuration not stated) | 101 to 1000 | < 100 |  |
| OC(COc1cccc(-c2ccccc2F)c1)CN1CCc2ccccc2C1 (configuration not stated) | 1000 to 10000 | 101 to 1000 |  |
| NS(=O)(=O)c1ccccc1OCC(=O)NCC(O)CN1CCc2ccccc2C1 (configuration not stated) | 101 to 1000 | < 100 | 1000 to 10000 |
| O=C(Nc1cccc(OCC(O)CN2CCc3ccccc3C2)c1)c1cccnn1 (configuration not stated) | 1000 to 10000 | 1000 to 10000 |  |
| O=C(Nc1cccc(OCC(O)CN2CCc3ccccc3C2)c1)c1cccnc1 (configuration not stated) | 1000 to 10000 | 1000 to 10000 |  |
| O=C(COc1ccccc1N1CCOCC1)NCC(O)CN1CCc2ccccc2C1 (configuration not stated) | 101 to 1000 | < 100 | 1000 to 10000 |
| NC(=O)c1ccccc1OCC(=O)NCC(O)CN1CCc2ccccc2C1 (configuration not stated) | 101 to 1000 | 101 to 1000 | > 20000 |

| SMILES | EC50 [1] [nM] | IC50 (PRMT5/MEP50 complex) [nM] | EC50 [2] [nM] |
| --- | --- | --- | --- |
| CC(=O)Nc1cccc(OCC(=O)NCC(O)CN2CCc3ccccc3C2)c1 (configuration not stated) | 101 to 1000 | 1000 to 10000 | 10000 to 50000 |
| O=C(COc1cccc2cccnc12)NC[C@@H](O)CN1CCc2ccccc2C1 | < 100 | < 100 | 101 to 1000 |
| O=C(NCC(O)CN1CCc2ccccc2C1)c1cccc(OC2CCOCC2)c1 (configuration not stated) | 101 to 1000 | 101 to 1000 |  |
| O=C(COc1cccc2cccnc12)NC[C@H](O)CN1CCc2ccccc2C1 | 101 to 1000 | 101 to 1000 | 10000 to 50000 |
| CS(=O)(=O)Nc1ccc(OCC(=O)NCC(O)CN2CCc3ccccc3C2)cc1 (configuration not stated) | 101 to 1000 | 101 to 1000 | > 20000 |
| CS(=O)(=O)Nc1ccccc1OCC(=O)NCC(O)CN1CCc2ccccc2C1 (configuration not stated) | 101 to 1000 | < 100 | 1000 to 10000 |
| O=C(COc1ccccc1-c1cc[nH]n1)NCC(O)CN1CCc2ccccc2C1 (configuration not stated) | < 100 | < 100 | 1000 to 10000 |
| O=C(COc1ccccc1F)NCC(O)CN1CCc2ccccc2C1 (configuration not stated) | 101 to 1000 | 101 to 1000 | 10000 to 50000 |
| Cn1cc2ccc(-c3cccc(OCC(O)CN4CCc5ccccc5C4)c3)cc2n1 (configuration not stated) | > 20000 | 101 to 1000 |  |
| CN(C)c1ccc(OCC(=O)NCC(O)CN2CCc3ccccc3C2)cc1 (configuration not stated) | 101 to 1000 | 101 to 1000 | 10000 to 50000 |
| NC(=O)c1cccc(OCC(=O)NCC(O)CN2CCc3ccccc3C2)c1 (configuration not stated) | 101 to 1000 | 101 to 1000 | 10000 to 50000 |
| CC(Oc1cccc2cccnc12)C(=O)NCC(O)CN1CCc2ccccc2C1 (configuration not stated) | < 100 | < 100 | 101 to 1000 |
| N#Cc1cccc(OCC(=O)NCC(O)CN2CCc3ccccc3C2)c1 (configuration not stated) | 101 to 1000 | 101 to 1000 | 10000 to 50000 |
| Cc1ccc(OCC(=O)NCC(O)CN2CCc3ccccc3C2)cc1 (configuration not stated) | 10000 to 50000 | 101 to 1000 | 10000 to 50000 |
| COc1ccc(OCC(=O)NCC(O)CN2CCc3ccccc3C2)cc1 (configuration not stated) | 101 to 1000 | 101 to 1000 | 10000 to 50000 |
| CN(C)c1cccc(OCC(=O)NCC(O)CN2CCc3ccccc3C2)c1 (configuration not stated) | 101 to 1000 | < 100 | 1000 to 10000 |
| O=C1CN(c2ccc(CO)cc2)CCN1CC(O)CN1CCc2ccccc2C1 (configuration not stated) | 1000 to 10000 | 101 to 1000 |  |
| O=C1CN(c2cccc(Cl)c2)CCN1CC(O)CN1CCc2ccccc2C1 (configuration not stated) | 1000 to 10000 | < 100 |  |
